Laboratory results as given in the SangsterLogP compilation.

Assay: method code SF-HPLC, from DOI: 10.1016/s0968-0896(00)00015-8, PMID: 10819159
Conditions: pH 7.4

Row | SMILES | logD
1 | CS(=O)(=O)N(COC(=O)c1ccccc1)c1ccc([N+](=O)[O-])cc1Oc1ccccc1 | 3.97
2 | CC(C)(C)C(=O)OCN(Nc1ccc([N+](=O)[O-])cc1Oc1ccccc1)S(C)(=O)=O | 3.96
3 | Cc1noc(N(COC(=O)c2ccccc2)S(=O)(=O)c2ccc(N)cc2)c1C | 2.83
4 | CCOC(=O)CN(C)C(=O)OCN(c1ccc([N+](=O)[O-])cc1Oc1ccccc1)S(C)(=O)=O | 2.2
5 | Cc1cc(C)nc(N(COC(=O)c2ccccc2)S(=O)(=O)c2ccc(N)cc2)n1 | 3.59
6 | Nc1ccc(S(=O)(=O)N(COC(=O)c2ccccc2)c2cncs2)cc1 | 1.47

Results, then the compound that gave them:

Row | logD | SMILES
7 | 2.28 | CCOC(=O)CNC(=O)OCN(c1ccc([N+](=O)[O-])cc1Oc1ccccc1)S(C)(=O)=O
8 | 2.15 | Nc1ccc(S(=O)(=O)N(COC(=O)c2ccccc2)c2ncccn2)cc1
9 | 2.85 | COC(=O)C1CCCN1C(=O)OCN(c1ccc([N+](=O)[O-])cc1Oc1ccccc1)S(C)(=O)=O (stereo not given)
10 | 3.07 | Cc1cc(C)nc(N(COC(=O)C(C)(C)C)S(=O)(=O)c2ccc(N)cc2)n1
